The results in this text go back to patent publication US20040038424A1, “Formaldehyde-ammonium salt complexes for the stabilization of blood cells” (priority 2002, published 2004).

Assay [1] concerns platelet granule marker CD62p on platelets. The assay is described as follows: Percentage of CD62p positive platelets by flow cytometry (platelet activation state). It counts as cell-based, human. Particulars: dibasic versus tribasic ammonium citrate in the reagent, FIGS. 11A and 11B. The text has this: When used to stabilize blood samples or fractions or other tissues containing platelets, the composition and methods of this invention preserve platelet activity in the state of activation substantially the same as that existing at the time of blood or platelet withdrawal from the blood or platelet donor. By “state of activation of the platelets” or “Activation Potential” as used herein is meant the percentage of platelets expressing the CD62p antigen, i.e., the percentage of platelets that bind CD62p fluorescently-labeled antibody as performed by flow cytometry, or CD62p positive platelets in the sample. The CD62p antigen represents a glycoprotein antigen that is unique to megakaryocyte, platelet, and endothelial cell secretory granules. […]
Expression of CD62p is measured typically by flow cytometric analysis using dual or multi-parameter analyses, and particularly by staining the samples with labeled ligands that bind to CD62p on the platelets in the sample. The ligands are conventionally monoclonal antibodies to the antigen to be measured. […]
The same protocol was conducted on activated blood samples. […] PAP was assessed using 2 μl of a 1/100 dilution (0.0324 mM) of stock PMA is added with 10 μl antibodies and 100 μl of diluent (PBS) and 2.5 μl of blood and incubated for 15 minutes (final concentration of 11.58 μM). […]
Background: Flow cytometry measures light scatter and fluorescence of single cells or particles in a stream.

For assay [2], the system named is cells. The assay can be described thus: Cellular stabilization (several experiments). In kind it is cell-based.

Regarding `N.N.O=C(O)CC(O)(CC(=O)O)C(=O)O` [dibasic ammonium citrate], the “stabilization of CD62p by ammonium salt type” value in assay [1] is listed as “better stabilization”.

Regarding `C1N2CN3CN1CN(C2)C3` [hexamethylenetetramine], the “effectiveness in cellular stabilization” value in assay [2] is “not effective”.
